# Patent US8012971B2, “Therapeutic agent for chronic obstructive pulmonary disease” (Dainippon Sumitomo Pharma Co., Ltd., priority 2005, dated 2011)
# Columns and labels:
# Type in all cases: in vivo
# [1] = system: Guinea Pig Chronic Obstructive Pulmonary Disease (COPD) Model; experiment: Histological investigations of lung in guinea pig COPD model
# Description: (§1) An evaluation was carried out as follows according to a report of Kosuke MORIZUMI, Junichi FUCHIGAMI et al., 2002, The 75th Annual Meeting of the Japanese Pharmacological Society (2002) Abstract No. P-259, “Study of a chronic obstructive pulmonary disease-Effects of theophylline on respiratory function and lung function of guinea pigs in an exposure of cigarette smoke.”
# (§2) Male Hartley strain guinea pigs (purchased from Japan SLC, Inc.) were taken in a cigarette exposure holder (RMH-TUBES, manufactured by Muenster Ltd.) to secure them to an exposure chamber (Flow-past type nose-only inhalation chamber, manufactured by Muenster Ltd.), and allowed to inhale cigarette smoke (Hi-Lite, manufactured by Japan Tobacco Inc.) for 60 minutes per day for 5 days in a week, totally 4 weeks using a smoking exposure equipment (Hamburg II, manufactured by Borgwaldt Technik), while the exposure was carried out for 4 days in the 4th week. • (2) Drug Administrations
# (§3) Each 0.5% MC suspension of a test drug was orally administered daily in 5 ml/weight (kg) once a day for 25 days from the first day of the exposure. To a sham-exposure group and a control group was orally administered a 0.5% MC suspension in a similar manner. Any oral administrations were carried out 0.5 to 1 hours before exposures on a cigarette-smoke-exposure day or after measurements when measuring respiratory functions. A drug was not administered on the day for measurement of respiratory functions after finishing the 4th week of the exposure. • (3) Measurements of Airway Resistance
# After collection of BALF, trachea and lung were isolated. The ligation site of the left lung was opened, injected neutral formalin buffer into trachea, bronchi and lung at the pressure of 20 cm H2O via cannula fixed on the side of the lung, and the lung tissue was extended to be fixed. According to a conventional method, tissue section samples were produced using posterior lobe of the left lung and hematoxylin-eosin (HE) stain was carried out. Any other lung tissues were stored in neutral formalin buffers. Drug efficacies of the produced tissue samples were evaluated by scoring tissue changes under the microscope. The criteria of scores were shown as follows: −: none, ±: minimal, +: mild, ++: moderate, +++: severe. Each quantification was calculated as 0, 1, 2, 3, 4.
# [2] = system: Guinea Pig Chronic Obstructive Pulmonary Disease (COPD) Model; experiment: Inflammatory cells in bronchoalveolar fluid in guinea pig COPD model; details: for Cell number in BALF, Macrophage / Cell number in BALF, Neutrophil / Cell number in BALF, Total: mean ± SEM of 8 animals
# Description: as §1, §2, §3
# After measuring lung functions, animals were exsanguinated to death and opened the thorax, ligated the left bronchial bifurcation, and then injected saline (2.5 mL) into the right lung and aspirated the same via fixed cannula on measuring lung functions repeatedly in twice (totally 5 mL), and the recovery solution was obtained as a bronchoalveolar lavage fluid (BALF). BALF was centrifuged (230×g, 4° C., for 10 minutes) to give cell pellets. The pellets were suspended in saline (0.5 mL), and to a part of the suspension was added Turk solution (manufactured by Wako Pure Chemical Industries, Ltd.) so as to dilute 10 to 20 folds. Leukocyte numbers per 0.1 μL were measured by a blood cell counting chamber and leukocyte numbers per 1 μL were calculated. Cell suspensions were prepared again, smears were prepared using about 2000 to 3000 total cell numbers, May-Grunwald-Giemsa stain was carried out, leukocyte numbers were counted under the microscope, a ratio of each leukocyte number to total leukocyte number was obtained, and each cell number per 1 μL was calculated based on the ratio. Results are shown in each cell number per 1 μL.
# [3] = system: Guinea Pig Chronic Obstructive Pulmonary Disease (COPD) Model; experiment: Lung functions (FRC, RV) in guinea pig COPD model; details: for Functional residual capacity (FRC) / Residual volume (RV): after 4th week of exposure, mean ± SEM of 8 animals
# Description: as §1, §2, §3
# After measuring airway resistances in the 4th week, animals were cut open their tracheas under urethane-anesthetizing ([…], i.p.), cannulated on the side of lung, fixed by ligation, and measured residual volumes (RV) and functional residual capacities (FRC) by lung functions measuring system (Biosystem for maneuver, manufactured by Buxco Electronics).
# [4] = system: Guinea Pig Chronic Obstructive Pulmonary Disease (COPD) Model; experiment: Airway resistance (sRaw) in guinea pig COPD model (cigarette smoke exposure); details: for Specific airway resistance (sRaw) % increase from pre value: 1 week of cigarette smoke exposure, mean ± SEM of 8 animals
# Description: as §1, §2, §3
# Specific airway resistances (sRaw) in guinea pigs were measured during awakening by double-flow plethysmography using general respiratory function analysis system (PULMOS-I, manufactured by M•I•P•S Corp.). Measurements were carried out before the exposure and on the day after finishing the 1st, 2nd, 3rd and 4th weeks of the exposure. Each 100 breathings of respiratory functions were individually measured, and the average values were obtained as measured values. A rate of change of airway resistances was calculated by the following equation. Rate of change of each measured week (%)=100×(a measured value on each measured date−a measured value before starting exposures of cigarette smoke)/a measured value before starting exposures of cigarette smoke
# [5] = 30 mg/kg/day for 25 days, 8 animals
# [6] = groups of 10 mg/kg and 30 mg/kg, result in words
smiles,measurement,setting,value
"CNC(=O)NCCn1c(-c2ccc(N3CCOCC3)cc2)csc1=Nc1cccc(F)c1 [SMP-028, N-{2-[2-[(3-fluorophenyl)imino]-4-(4-morpholinophenyl)-thiazol-3(2H)-yl]ethyl}-N′-methylurea]","Number of animals with grade ++ (moderate): D. Accumulation, foamy/macrophage-like cell, alveolus",[1]; [5],0
same,"Number of animals with grade ++ (moderate): E. Cellular infiltration, neutrophil, alveolus",[1]; [5],0
same,"Number of animals with grade +++ (severe): A. Hyperplasia, epithelial cell, bronchus",[1]; [5],0
same,"Number of animals with grade +++ (severe): B. Cellular exudation, neutrophil/eosinophil, lumen, bronchiole",[1]; [5],0
same,"Number of animals with grade +++ (severe): C. Thickening, alveolar wall",[1]; [5],0
same,"Number of animals with grade +++ (severe): D. Accumulation, foamy/macrophage-like cell, alveolus",[1]; [5],0
same,"Number of animals with grade +++ (severe): E. Cellular infiltration, neutrophil, alveolus",[1]; [5],0
same,"Number of animals with grade ± (minimal): A. Hyperplasia, epithelial cell, bronchus",[1]; [5],0
same,"Number of animals with grade ± (minimal): B. Cellular exudation, neutrophil/eosinophil, lumen, bronchiole",[1]; [5],0
same,"Number of animals with grade ± (minimal): C. Thickening, alveolar wall",[1]; [5],2
same,"Number of animals with grade ± (minimal): D. Accumulation, foamy/macrophage-like cell, alveolus",[1]; [5],3
same,"Number of animals with grade ± (minimal): E. Cellular infiltration, neutrophil, alveolus",[1]; [5],0
same,"Number of animals with grade − (none): A. Hyperplasia, epithelial cell, bronchus",[1]; [5],8
same,"Number of animals with grade − (none): B. Cellular exudation, neutrophil/eosinophil, lumen, bronchiole",[1]; [5],8
same,"Number of animals with grade − (none): C. Thickening, alveolar wall",[1]; [5],5
same,"Number of animals with grade − (none): D. Accumulation, foamy/macrophage-like cell, alveolus",[1]; [5],3
same,"Number of animals with grade − (none): E. Cellular infiltration, neutrophil, alveolus",[1]; [5],8
same,accumulation of foamy cells/macrophage-like cells within the alveoli and thickening of the alveolar wall,[1]; [6],tended to be suppressed
same,scored pathological findings (FIG. 2) relative to control group,"[1]; scores 0-4 for grades − to +++, result in words",tended to be dose-dependently suppressed
same,"Cell number in BALF, Macrophage",[2]; 10 mg/kg/day oral,2506 ± 313 ^NS cells/μL
same,"Cell number in BALF, Neutrophil",[2]; 10 mg/kg/day oral,1114 ± 193 ^NS cells/μL
same,"Cell number in BALF, Total",[2]; 10 mg/kg/day oral,4044 ± 419 ^NS cells/μL
same,"Cell number in BALF, Macrophage",[2]; 30 mg/kg/day oral,2497 ± 483 ^NS cells/μL
same,"Cell number in BALF, Neutrophil",[2]; 30 mg/kg/day oral,772 ± 277 ^NS cells/μL
same,"Cell number in BALF, Total",[2]; 30 mg/kg/day oral,3897 ± 783 ^NS cells/μL
same,infiltrations of the inflammatory cells in the airway,[2]; [6],tended to be suppressed
same,Functional residual capacity (FRC),[3]; 10 mg/kg/day oral,7.213 ± 0.374 ^NS mL
same,Residual volume (RV),[3]; 10 mg/kg/day oral,3.236 ± 0.537 ^NS mL
same,Functional residual capacity (FRC),[3]; 30 mg/kg/day oral,7.066 ± 0.353 ^NS mL
same,Residual volume (RV),[3]; 30 mg/kg/day oral,2.649 ± 0.649 ^NS mL
same,increases of functional residual capacity (FRC) and residual volume (RV),[3]; [6],tended to be suppressed
same,Specific airway resistance (sRaw) % increase from pre value,[4]; 10 mg/kg/day oral,25.54 ± 10.91%
same,Specific airway resistance (sRaw) % increase from pre value,[4]; 30 mg/kg/day oral,15.02 ± 4.07%
same,increases of airway resistance by cigarette smoking stimulation,[4]; [6],tended to be suppressed
